Test results reported in US20260327196A1, “AMINO ACID DERIVATIVES FOR DETECTING NEUROLOGICAL DISORDERS” (Amydis, Inc., priority 2023, published 2026).
Counter-ions that a name gives are not always drawn.

What was measured:
[1] = tested on: amyloidogenic protein aggregates (e.g., Aβ, aSyn, TTR, and TDP43); experiment: In vitro characterization: binding to amyloidogenic protein aggregates; settings: 4 μM compound 1, 5 μM aggregated protein; excitation 450 and 488 nm
Description: (§1) An in vitro study was carried out to characterize the fluorescent properties of compound 1 and its binding to amyloidogenic protein aggregates (e.g., Aβ, aSyn, TTR, and TDP43).
(§2) Compound 1 (4 μM) was prepared with or without 5 μM aggregated amyloidogenic protein in 1× phosphate-buffered saline (PBS). The emission spectra of compound 1 for each sample were collected according to the following protocol and the corresponding fold increases (compound 1+amyloid aggregate/compound 1) were calculated.
The following protocol was adopted in this study: • 1. Turn on the fluorimeter and let warm up for-30 minutes • 2. Allow aggregated amyloid protein (100 μM) solution to warm to room temperature • 3. Allow the compound 1 to warm to room temperature • 4. Prepare 1×PBS, pH 7.4. • 5. Prepare blank solution of DMSO/PBS (2.42 μl DMSO in 147.6 μl PBS, pH 7.4) • 6. Prepare a 250 μM solution of compound 1 in DMSO. Keep samples in the dark at room temperature. • 7. Prepare a 4 μM compound 1 solution with and without 5 μM aggregated amyloid protein • 8. Measure the emission scan of compound 1+aggregated amyloid protein solution using 1) 450 nm and 2) 488 nm as the excitation wavelength. Record the emission sweep from 450 nm-750 nm. Determine Amax from these spectra • 9. […] Export the data and plot relative fluorescence intensity (RFI) versus wavelength for emission spectra

[2] = tested on: aggregates in ALS ex vivo retina cadaver tissue; experiment: Ex vivo human cadaver imaging study, flat mounted ALS retinas stained with compound 1; settings: 60 μM compound 1, 30 minutes at room temperature, confocal microscope
Description: An ex vivo human cadaver imaging study was carried out using compound 1. Flat mounted retinas extracted from ALS (amyotrophic lateral sclerosis) human cadavers were stained with compound 1 (60 μM) and images were collected.
The following staining protocol was adopted in this study:
• (i) Fix tissue in room temperature 4% PFA for 20 minutes, wash, permeabilize, and block (5% goat serum in PBST for 1 hour) • (ii) Incubate with 60 μM compound 1 in 1×PBS for 30 minutes at room temperature • (iii) Wash with PBS (3 times for 5 minutes) • (iv) Mount tissue using antifade Prolong Glass mounting media. • (v) Image with confocal microscope • (vi) Add lambda scanning imaging protocol to determine the emission peak.

TTR = TTR (Homo sapiens, UniProt P02766); experiment: Fluorescence emission / binding of compound 1 to aggregated amyloidogenic protein (Table A); settings: 4 μM compound 1, 5 μM aggregated protein, 1×PBS pH 7.4
Description: as §1, §2
(§3) The following protocol was adopted in this study: • 1. Turn on the fluorimeter and let warm up for-30 minutes • 2. Allow aggregated amyloid protein (100 μM) solution to warm to room temperature • 3. Allow the compound 1 to warm to room temperature • 4. Prepare 1×PBS, pH 7.4. • 5. Prepare blank solution of DMSO/PBS (2.42 μl DMSO in 147.6 μl PBS, pH 7.4) • 6. Prepare a 250 μM solution of compound 1 in DMSO. Keep samples in the dark at room temperature. • 7. Prepare a 4 μM compound 1 solution with and without 5 μM aggregated amyloid protein • 8. Measure the emission scan of compound 1+aggregated amyloid protein solution using 1) 450 nm and 2) 488 nm as the excitation wavelength. Record the emission sweep from 450 nm-750 nm. Determine Amax from these spectra • 9. Repeat step 8 for 4 μM compound 1 without amyloid protein • 10. Export the data and plot relative fluorescence intensity (RFI) versus wavelength for emission spectra

aSyn = aSyn (Homo sapiens, UniProt P37840); experiment: as above; settings: 4 μM compound 1, 5 μM aggregated protein, 1×PBS pH 7.4
Description: as §1, §2, §3

Aβ = Aβ (Homo sapiens, UniProt P05067); experiment: as above; settings: 4 μM compound 1, 5 μM aggregated protein, 1×PBS pH 7.4
Sequence of Aβ (P05067 672-713 limits assumed): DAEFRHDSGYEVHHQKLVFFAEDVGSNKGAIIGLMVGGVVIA
Description: as §1, §2, §3

TDP43 = TDP43 (Homo sapiens, UniProt Q13148); experiment: as above; settings: 4 μM compound 1, 5 μM aggregated protein, 1×PBS pH 7.4
Sequence of TDP43 (Q13148 whole entry): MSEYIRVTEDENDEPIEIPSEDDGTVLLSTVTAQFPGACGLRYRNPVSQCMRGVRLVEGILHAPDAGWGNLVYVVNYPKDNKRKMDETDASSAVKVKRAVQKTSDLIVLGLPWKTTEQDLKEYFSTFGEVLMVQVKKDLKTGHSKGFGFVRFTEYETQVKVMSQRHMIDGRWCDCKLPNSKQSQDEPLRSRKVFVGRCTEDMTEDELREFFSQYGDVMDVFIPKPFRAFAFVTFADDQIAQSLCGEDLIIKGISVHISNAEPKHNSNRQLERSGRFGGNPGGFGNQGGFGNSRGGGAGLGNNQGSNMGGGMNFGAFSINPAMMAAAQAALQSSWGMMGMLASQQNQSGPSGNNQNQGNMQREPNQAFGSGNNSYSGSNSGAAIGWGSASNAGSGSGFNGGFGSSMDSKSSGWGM
Description: as §1, §2, §3

[3] = tested on: amyloid-like deposits in the retina; experiment: In vivo NHP imaging study, fundus autofluorescence (FAF); design: species or system non-human primates (monkeys); settings: 5.13 mg/kg IV bolus
Description: An in vivo imaging study was carried out in non-human primates (NHP).
Compound 1 was administered to ketamine xylazine-anesthetized monkeys as a single bolus intravenous dose according to Table B. In-vivo fundus autofluorescence (FAF) images were collected prior to injection and at 2-, 5-, 15-, and 30-minutes post injection.
The compound 1 solution for injection (7 mg/mL compound 1 in 13 mM sodium bicarbonate buffered at pH 4.2) was prepared according to the following steps: • 1. Add 3 g sodium bicarbonate to 100 mL water (0.03 g/ml) • 2. Weigh out 4 g of PEG-400 (d. 1.13 g/mL) into an amber, or light isolated, 20 mL storage container containing a stir bar • 3. Add 200 mg of compound 1-HCl to the PEG-400 • 4. Add 20 mL water and stir until clear (~10 min) • 5. Add dropwise 0.6 ml of 0.03 g/ml sodium bicarbonate solution and stir 10 min (PH ~3.8) • 6. Add dropwise another 0.2 ml of the sodium bicarbonate solution and stir 10 min to adjust pH to 4.2 to provide a clear red solution • 7. Filter through 1 inch 0.22 μm diameter syringe filter to give a red clear solution into a presterilized sealed 20 mL amber glass vial • 8. Test the pH to confirm ~4.2 • 9. Transfer the remaining formulation into a 5 mL presterilized amber glass vial and place into a −20° C. freezer for analytical testing. The vial can be stored for up to 1 hour prior to use. • 10. Inject with a sterile syringe attached to a 0.22-micron PVDF membrane filter and needle. Use within 1 hour.

[4] = tested on: Hyperphosphorylated three repeat tau protein; experiment: In vivo detection in TBI mouse model, fluorescent imaging of retinas; settings: intravenous administration, removed retinas, fluorescence microscope; wild type mice of comparable age: no immunostaining
Description: Model mice having a target protein, for example, an amyloid beta protein, or a phosphorylated tau protein, or an accumulated mass thereof, are administered compound 1, 2, or 3 intravenously. Retinas of the mice are removed and are mounted on slides. The retinas are washed with PBS 2 times for 5 minutes. A solution of 98% formic acid is added-5 minutes for antigen retrieval. The sampled are washed with distilled water-2 times for 5 minutes. The samples are equilibrated in 1×PBS for 15 minutes, then blocked with 10% goat/donkey serum in 1×PBST (depending on antibodies) for 1 hour. Samples are covered in foil, and washed with 1×PBS 3 times for 5 minutes each. Samples are stained with DAPI (300 nM or 100 ng/ml) in dark for 10 minutes, then tissues are washed 3×10 minutes with PBS. Antifade DAKO mounting medium is added, and coverslip and kept under foil until imaging.
Fluorescent imaging study of the samples is conducted on a Leica DMI 4000B microscope (Leica, Germany) equipped with a TCS SPE camera and Leica 10, 20 and 40× objectives. The following lasers are used to visualize fluorescent probes pertaining to DAPI (blue, nuclear stain), compound 1, 2, or 3 (green) and hyperphosphorylated tau (red): 408, 488 and 568 nm. Z-stacked images are taken at 40× at 0.5 μm increments to visualize the entire thickness of the tissue.

[5] = FAF images at 2, 5, 15 and 30 minutes post injection

N#C/C(=C\c1ccc2cc(N3CCCCC3)ccc2c1)C(=O)NCCOCCOCCOC(=O)CN [Compound 1, (E)-2-(2-(2-(2-cyano-3-(6-(piperidin-1-yl)naphthalen-2-yl)acrylamido)ethoxy)ethoxy)ethyl glycinate hydrochloride salt] was tested, and the “binding to the aggregated amyloidogenic proteins in vitro” value [1] was “successfully bound to the aggregated amyloidogenic proteins in vitro”, the “labeling of aggregates in ALS retina” value [2] was “labeled aggregates in ALS ex vivo retina cadaver tissue” and the “Fold (fold increase, compound 1+amyloid aggregate/compound 1)” value (TTR; excitation 450 nm) was 11.5 fold. For the same molecule, the λmax (TTR; excitation 450 nm) was 543 nm, the “Fold (fold increase, compound 1+amyloid aggregate/compound 1)” value (TTR; excitation 488 nm) was 5.9 fold and the λmax (TTR; excitation 488 nm) was 549 nm. The “Fold (fold increase, compound 1+amyloid aggregate/compound 1)” value (aSyn; excitation 450 nm) was 174.1 fold, the λmax (aSyn; excitation 450 nm) was 530 nm and the “Fold (fold increase, compound 1+amyloid aggregate/compound 1)” value (aSyn; excitation 488 nm) was 110.8 fold. The λmax (aSyn; excitation 488 nm) was 538 nm, the “Fold (fold increase, compound 1+amyloid aggregate/compound 1)” value (Aβ; excitation 450 nm) was 25.3 fold and the λmax (Aβ; excitation 450 nm) was 550 nm. The “Fold (fold increase, compound 1+amyloid aggregate/compound 1)” value (Aβ; excitation 488 nm) was 17.9 fold, the λmax (Aβ; excitation 488 nm) was 555 nm and the “Fold (fold increase, compound 1+amyloid aggregate/compound 1)” value (TDP43; excitation 450 nm) was 6.1 fold. For the same molecule, the λmax (TDP43; excitation 450 nm) was 544 nm, the “Fold (fold increase, compound 1+amyloid aggregate/compound 1)” value (TDP43; excitation 488 nm) was 4.70 fold and the λmax (TDP43; excitation 488 nm) was 529 nm. The “hyperfluorescence in vasculature and retinal tissue following injection” value [3, 5] was “hyperfluorescence was observed within minutes in the vasculature following injection and subsequently in the retinal tissue”, the “labeling of amyloid-like deposits in the retina” value [3, 5] was “labeled amyloid-like deposits in the retina” and the “clearance of signal from the vascular system” value ([3]; FAF images up to 30 minutes post injection) was “signal cleared quickly from the vascular system”. The “detection of hyperphosphorylated three repeat tau in the retina (fluorescent signal)” value (“detection” for short) [4] was “Hyperphosphorylated three repeat tau protein is detected in the retina, producing a detectable fluorescent signal”.
CC(C)(C)OC(=O)NCC(=O)OCCOCCOCCNC(=O)/C(C#N)=C/c1ccc2cc(N3CCCCC3)ccc2c1 [Compound 2, (E)-2-(2-(2-(2-cyano-3-(6-(piperidin-1-yl)naphthalen-2-yl)acrylamido)ethoxy)ethoxy)ethyl (tert-butoxycarbonyl)glycinate] was tested, and the “detection” value [4] was “Hyperphosphorylated three repeat tau protein is detected in the retina, producing a detectable fluorescent signal”.
C[C@H](N)C(=O)OCCOCCOCCNC(=O)/C(C#N)=C/c1ccc2cc(N3CCCCC3)ccc2c1 [Compound 3, (E)-2-(2-(2-(2-cyano-3-(6-(piperidin-1-yl)naphthalen-2-yl)acrylamido)ethoxy)ethoxy)ethyl L-alaninate hydrochloride salt] was tested, and the “detection” value [4] was “Hyperphosphorylated three repeat tau protein is detected in the retina, producing a detectable fluorescent signal”.
